Reference: US4196205A, “3-Acetoxymethyl-7-(iminoacetamido)-cephalosporanic acid derivatives” (priority 1976, dated 1980)
≈ marks a conversion by molar mass, not a printed value. Like-named read-outs stand apart in the source and are kept apart here.

Legend:
[1] = test system: Bacillus subtilis ATCC 6 633; assay: MIC, dilution in liquid medium; type: cell-based; conditions: for MIC: Bacillus subtilis
Experimental: (§1) The method used was a dilution of a liquid medium where a series of tubes received the same quantity of a sterile nutritive media and increasing doses of the test compounds were placed therein. Then each tube was seeded with a bacterial strain and was incubated for 24 to 48 hours at 37° C. in an oven. The increasing inhibition was determined by transillumination to determine the minimum inhibiting concentration (MIC in […]) and the results are reported in the following Tables.

[2] = test system: Enterobacter cloacae 681; assay: MIC, dilution in liquid medium; type: cell-based
Experimental: as §1

[3] = test system: Escherichia Coli Exp. TO26 B6; assay: MIC, dilution in liquid medium; type: cell-based; conditions: for MIC: Escherichia coli
Experimental: as §1

[4] = test system: Escherichia Coli Resistant Gentamicine, Tobramycine R 55 123 D; assay: MIC, dilution in liquid medium; type: cell-based; conditions: for MIC: Escherichia coli, read-out: M.I.C.
Experimental: as §1

[5] = test system: Escherichia Coli Resistant Tetracycline ATCC 11 303 = UC 1261; assay: MIC, dilution in liquid medium; type: cell-based; conditions: for MIC: Escherichia coli
Experimental: as §1

[6] = test system: Escherichia Coli Sensible Tetracycline ATCC 9 637 = 1020; assay: MIC, dilution in liquid medium; type: cell-based; conditions: for MIC: Escherichia coli
Experimental: as §1

[7] = test system: Klebsiella pneumoniae 2 536 Resistant Gentamicine; assay: MIC, dilution in liquid medium; type: cell-based; conditions: for MIC: Klebsiella pneumoniae, read-out: M.I.C.
Experimental: as §1

[8] = test system: Klebsiella pneumoniae Exp. 52 145; assay: MIC, dilution in liquid medium; type: cell-based; conditions: for MIC: Klebsiella pneumoniae
Experimental: as §1

[9] = test system: Proteus mirabilis (indol-) A 235; assay: MIC, dilution in liquid medium; type: cell-based; conditions: for MIC: Proteus mirabilis, read-out: M.I.C.
Experimental: as §1

[10] = test system: Providencia Du 48; assay: MIC, dilution in liquid medium; type: cell-based; conditions: for MIC: Providencia
Experimental: as §1

[11] = test system: Salmonella typhimurium 420; assay: MIC, dilution in liquid medium; type: cell-based; conditions: for MIC: Salmonella enterica, TYPHIMURIUM
Experimental: as §1

[12] = test system: Serratia Resistant Gentamicine 2 532; assay: MIC, dilution in liquid medium; type: cell-based
Experimental: as §1

[13] = test system: Staphylococcus aureus ATCC 5 638 Pen-Sensible = UC 1061; assay: MIC, dilution in liquid medium; type: cell-based
Experimental: as §1

[14] = test system: Staphylococcus aureus UC 1 128 Pen-Resistant; assay: MIC, dilution in liquid medium; type: cell-based; conditions: for MIC: Staphylococcus aureus
Experimental: as §1

[15] = test system: Staphylococcus aureus exp. n° 54 146; assay: MIC, dilution in liquid medium; type: cell-based; conditions: for MIC: Staphylococcus aureus
Experimental: as §1

[16] = test system: Streptococcus faecalis 5 432; assay: MIC, dilution in liquid medium; type: cell-based
Experimental: as §1

[17] = test system: Streptococcus faecalis 99 F 74; assay: MIC, dilution in liquid medium; type: cell-based; conditions: for MIC: Enterococcus faecalis
Experimental: as §1

[18] = test system: Streptococcus pyogenes A 561; assay: MIC, dilution in liquid medium; type: cell-based; conditions: for MIC: Streptococcus pyogenes, read-out: M.I.C.
Experimental: as §1

[19] = test system: Proteus vulgaris (indol+) A 232; assay: MIC, dilution in liquid medium; type: cell-based; conditions: Proteus vulgaris, read-out: M.I.C.
Experimental: as §1

[20] = test system: Pseudomonas 3 935 Exp. SG; assay: MIC, dilution in liquid medium; type: cell-based
Experimental: as §1

[21] = test system: Salmonella typhimurium 5210; assay: Experimental infection with Salmonella typhimurium in mice; type: in vivo
Experimental: Groups of 10 mice with an average weight of 20.5 g were intraperitoneally injected with 0.5 ml of a 24 hour old culture in oxoid bouillon of Salmonella typhimurium 5210 diluted 1/75 with distilled water. The product of Example 7 was administered subcutaneously one hour and 4, 8, 24 and 32 hours after the infection and the results, determined as before, are reported in the following Table.

[22] = Acute toxicity in mice; type: in vivo, female mice of Swiss CD1 Specific Pathogen Free Strain; conditions: for Total Mortality: 4 days
Experimental: The acute toxicity of the product of Example 7 was determined on groups of 8 to 10 female mice of Swiss CD1 Specific Pathogen Free Strain (stock CH.River-France), with an average weight of 19 to 21 g, for each dose of the compound.
The animals had injection in the caudal vein in a variable volume at a rate of 1 ml/mn of the product of Example 7 dissolved at a concentration of 100 mg/ml in sterile apyrogen distilled water.

CC(=O)OCC1=C(C(=O)O)N2C(=O)C(NC(=O)/C(=N\O)c3csc(N)n3)C2SC1 (stereo not drawn) [Example 28, syn isomer of 7-[2-(2-amino-4-thiazolyl)-2-hydroxyiminoacetamido]-3-acetoxymethyl-ceph-3-eme-4-carboxylic acid]
MIC ([1]; ATCC6, 24 h, 24 H, read-out: M.I.C.): 0.5 µg/mL (≈ 1.13 µM) | MIC ([1]; ATCC6, 48 h, 48 H): 1 µg/mL (≈ 2.27 µM) | MIC ([2]; Enterobacter cloacae, 681, 24 h): 5 µg/mL (≈ 11.3 µM) | MIC ([2]; Enterobacter cloacae, 681, 48 h, read-out: M.I.C.): 10 µg/mL (≈ 22.7 µM) | MIC ([3]; 24 h): 0.05 µg/mL (≈ 0.113 µM) | MIC ([3]; 48 h): 0.1 µg/mL (≈ 0.227 µM) | MIC ([4]; 24 h): 0.2 µg/mL (≈ 0.453 µM) | MIC ([4]; 48 h): 0.2 µg/mL (≈ 0.453 µM) | MIC ([5]; 24 h): 0.1 µg/mL (≈ 0.227 µM) | MIC ([5]; 48 h): 0.1 µg/mL (≈ 0.227 µM) | MIC ([6]; ATCC9, 24 h, 24 H): 0.05 µg/mL (≈ 0.113 µM) | MIC ([6]; ATCC9, 48 h, 48 H): 0.1 µg/mL (≈ 0.227 µM) | MIC ([7]; 24 h): 0.2 µg/mL (≈ 0.453 µM) | MIC ([7]; 48 h): 0.5 µg/mL (≈ 1.13 µM) | MIC ([8]; EXP.52145, 24 h, 24 H): 0.05 µg/mL (≈ 0.113 µM) | MIC ([8]; EXP.52145, 48 h, 48 H): 0.1 µg/mL (≈ 0.227 µM) | MIC ([9]; 24 h): 0.1 µg/mL (≈ 0.227 µM) | MIC ([9]; 48 h): 0.2 µg/mL (≈ 0.453 µM) | MIC ([10]; DU48, 24 h, 24 H): 2 µg/mL (≈ 4.53 µM) | MIC ([10]; DU48, 48 h, 48 H): 2 µg/mL (≈ 4.53 µM) | MIC ([11]; 24 h, read-out: M.I.C.): 0.1 µg/mL (≈ 0.227 µM) | MIC ([11]; 48 h): 0.1 µg/mL (≈ 0.227 µM) | MIC ([12]; 24 h): 5 µg/mL (≈ 11.3 µM) | MIC ([12]; 48 h, read-out: M.I.C.): 10 µg/mL (≈ 22.7 µM) | MIC ([13]; 24 h, read-out: M.I.C.): 0.5 µg/mL (≈ 1.13 µM) | MIC ([13]; 48 h, read-out: M.I.C.): 0.5 µg/mL (≈ 1.13 µM) | MIC ([14]; UC1, 24 h, 24 H): 1 µg/mL (≈ 2.27 µM) | MIC ([14]; UC1, 48 h, 48 H): 1 µg/mL (≈ 2.27 µM) | MIC ([15]; 24 h): 1 µg/mL (≈ 2.27 µM) | MIC ([15]; 48 h): 1 µg/mL (≈ 2.27 µM) | MIC ([16]; Enterococcus faecalis, 5432, 24 h, 24 H): 5 µg/mL (≈ 11.3 µM) | MIC ([16]; Enterococcus faecalis, 5432, 48 h, 48 H): 5 µg/mL (≈ 11.3 µM) | MIC ([17]; 99F74, 24 h, read-out: M.I.C.): 10 µg/mL (≈ 22.7 µM) | MIC ([17]; 99F74, 48 h, 48 H): 40 µg/mL (≈ 90.6 µM) | MIC ([18]; A561, 24 h, 24 H): 0.02 µg/mL (≈ 0.0453 µM) | MIC ([18]; A561, 48 h, 48 H): 0.02 µg/mL (≈ 0.0453 µM)

CO/N=C(\C(=O)N[C@@H]1C(=O)N2C(C(=O)O)=C(COC(C)=O)CS[C@H]12)c1csc(N)n1 [Example 7, sodium 3-acetoxymethyl-7-[2-(2-amino-4-thiazolyl)-2-methoxyiminoacetamido]-ceph-3-eme-4-carboxylate]
M.I.C. ([1]; 24 H): 1 µg/mL | M.I.C. ([1]; 48 H): 2 µg/mL | M.I.C. ([3]; 24 H): 0,05 μg/ml | M.I.C. ([3]; 48 H): 0,05 μg/ml | M.I.C. ([4]; 24 H): 0,1 μg/ml | M.I.C. ([4]; 48 H): 0,1 μg/ml | M.I.C. ([5]; 24 H): ≤ 0,02 μg/ml | M.I.C. ([5]; 48 H): ≤ 0,02 μg/ml | M.I.C. ([6]; 24 H): 0,1 μg/ml | MIC ([6]; ATCC9, 48 h, 48 H, read-out: M.I.C.): 0.1 µg/mL | M.I.C. ([7]; 24 H): 0,2 μg/ml | M.I.C. ([7]; 48 H): 0,2 μg/ml | M.I.C. ([8]; 24 H): ≤ 0,02 μg/ml | M.I.C. ([8]; 48 H): ≤ 0.02 µg/mL | M.I.C. ([9]; 24 H): ≤ 0,02 μg/ml | M.I.C. ([9]; 48 H): ≤ 0,02 μg/ml | MIC ([19]; 24 h): 0.2 µg/mL | MIC ([19]; 48 h): 0.6 µg/mL | M.I.C. ([10]; 24 H): 1 µg/mL | M.I.C. ([10]; 48 H): 2 µg/mL | M.I.C. ([20]; 24 H): 10 µg/mL | M.I.C. ([20]; 48 H): 20 µg/mL | M.I.C. ([11]; 24 H): 0,1 μg/ml | M.I.C. ([11]; 48 H): 20 µg/mL | MIC ([13]; 48 h): 2 µg/mL | M.I.C. ([14]; 24 H): 2 µg/mL | M.I.C. ([14]; 48 H): 3 µg/mL | M.I.C. ([15]; 48 H): 2 µg/mL | MIC ([15]; 24 h): 2 µg/mL | M.I.C. ([16]; 24 H): 1 µg/mL | M.I.C. ([16]; 48 H): 3 µg/mL | M.I.C. ([17]; 24 H): 3 µg/mL | MIC ([17]; 99F74, 48 h, read-out: M.I.C.): 10 µg/mL | M.I.C. ([18]; 24 H): 0,01 μg/ml | M.I.C. ([18]; 48 H): 0,01 μg/ml | MORTALITY AFTER 6J ([21]; 0,1 mg subcutaneously): 3 | MORTALITY AFTER 7J ([21]; 0,1 mg subcutaneously): 3 | MORTALITY AFTER 8J ([21]; 0,1 mg subcutaneously): 1 | Mice alive on the 10th day ([21]; 0,1 mg subcutaneously): 3/10 | MORTALITY AFTER 5J ([21]; 0,5 mg subcutaneously): 1 | MORTALITY AFTER 6J ([21]; 0,5 mg subcutaneously): 1 | MORTALITY AFTER 7J ([21]; 0,5 mg subcutaneously): 1 | Mice alive on the 10th day ([21]; 0,5 mg subcutaneously): 7/10 | MORTALITY AFTER 7J ([21]; 0,25 mg subcutaneously): 2 | MORTALITY AFTER 8J ([21]; 0,25 mg subcutaneously): 1 | MORTALITY AFTER 9J ([21]; 0,25 mg subcutaneously): 2 | Mice alive on the 10th day ([21]; 0,25 mg subcutaneously): 5/10 | MORTALITY AFTER 8J ([21]; 1 mg subcutaneously): 1 | Mice alive on the 10th day ([21]; 1 mg subcutaneously): 9/10 | Mice alive on the 10th day ([21]; 2 mg subcutaneously): 10/10 | lethal dose ([22]; caudal vein, mice): above 2000 mg/kg | Total Mortality ([22]; dose 500 mg, caudal vein): 0/10 | Total Mortality ([22]; dose 1000 mg, caudal vein): 0/10 | Total Mortality ([22]; dose 2000 mg, caudal vein): 0/8 | Symptomatology ([22]; following the injections and during the observation period): No symptoms of intoxication were noted
